# Source: patent publication US7267815B2, “Methods and reagents for the enhancement of virus transduction in the bladder epithelium” (priority 2002, dated 2007)
# Tests used:
# [1] = test system: SW780+ Luc orthotopic bladder tumor; assay: DDM as chemical enhancer prior to Ad.LacZ infection of orthotopic bladder tumor model; format: in vivo, NCR nu/nu Mouse; details: DDM pretreatment (QQ5 minQ), 15 min Ad.Lac Z, 96 hrs; except dead necrotic tumor cells
# From the text: In each case, >90% Ad-βgal expression was achieved. Therefore, DDM from either manufacturer is a good candidate for a chemical enhancer for adenovirus infection in mice bladder. Efficacy of Dodecyl-β-D-Maltoside as Chemical Enhancer Prior to Adenovirus Infection of SW780+ Luc Orthotopic Bladder Tumor Model in Mice • Species: Female NCR nu/nu Mouse (Taconic Laboratory)-2/group • Study Design: To show DDM pretreatments enhance Ad.Lac Z infectivity in mice bladder urothelium. To further confirm the enhancer effect on orthotopic tumors, two mice bearing orthotopic SW780 bladder tumors were pretreated with or without DDM (QQ5 minQ) followed by 15 min Ad.Lac Z instillation. The Ad.Lac Z gene expression levels were checked in these tumor cells 4 days post Ad.Lac Z infection. • Dose/Route:
# Dodecyl-β-D-Maltoside (Lot#018H7250).
# Results: There was a significant difference in Ad-βgal gene expression levels between mice bladders pretreated with DDM and control animals. Without DDM pretreatment, there was very low Ad-βgal gene expression levels in bladder epithelium cells and tumor cells. With DDM pretreatment, nearly 100% of the epithelium cells were transduced with Ad-βgal gene in bladder tumors except those dead necrotic tumor cells. It was concluded that DDM pretreatment enhances Adenovirus infection in orthotopic tumor cells. […]
# adenovirus (Ad-LacZ) = assay: Study #5: adenovirus stability after incubation with 0.1% SDS or 0.1% DDM (plaque assay); format: physicochemical; details: 0.1% solution, one hour at 25° C. or 37° C.
# Procedure: In this study, adenovirus (Ad-LacZ) preparations (1.0×10^12 vp/ml) were mixed with solutions of SDS or DDM to obtain a mixture of adenovirus and each of these surfactants. […] These samples were incubated at 25° C. or 37° C. for one hour before freezing. They were sent to assay services for plaque assay analysis.
# [2] = test system: SD rat bladder epithelium; assay: Adenovirus dose titration with SDS or DDM pretreatment; format: in vivo, Sprague Dawley Rat; details: 0.1% pretreatment
# From the text: All the animals had >90% in Ad-βgal gene expression in mice bladder. Adenovirus Dose Titration with Different Chemical Agents Pretreatment on SD Rat Bladder Epithelium • Species: Female Sprague Dawley Rat (Taconic Laboratory)—2/group • Study Design: To test the virus infectivity of rat bladder epithelium with different doses of Adenovirus following the pretreatment with SDS or DDM. This study also explored relationship between bladder volume and residual of SDS or DDM for adenovirus infectivity. • Dose/Route:
# Rat bladders infected with 4×10^10 vp adenovirus achieved >90% Ad-βgal gene expression levels whereas rat bladders infected with 4×10^9 vp adenovirus had Ad-βgal gene expression levels range from 30% to 50%. […] Efficacy of Dodecyl-β-D-Maltoside as a Pretreatment Agent Prior to Adenovirus Infection of Mice Bladder Urothelium • Species: Female Balb/c Mouse (Taconic Laboratory)—2/group • Study Design: To test DDM from two different suppliers as pretreatment agents to enhance the adenovirus infection of mice bladder urothelium in a large group of animals. • Dose/Route: […]
# bladder epithelium = assay: Transduction efficacy of exemplary pretreatment agents (summary Table 7); format: in vivo, mouse; details: pretreatment agent
# bladder = assay: Histopathology of bladders after chemical agent pretreatment (pathologists report); format: in vivo, mouse (BALB/c)
# From the text: Bladders fixed in whole organ fixative were sectioned and stained with hematoxylin-eosin for histologic examination.
# mice bladder urothelium = assay: Adenovirus formulated with different concentrations of Dodecyl-β-D-Maltoside, infectivity of bladder urothelium; format: in vivo, Balb/c Mouse; details: for gene expression in bladder: 20 min. instillation
# Procedure: • Species: Female Balb/c Mouse (Taconic Laboratory)-2/group • Study Design: To test the effect of formulating Ad-βgal virus with different concentrations of Dodecyl-β-D-Maltoside and the resultant infection of mice bladder urothelium • Dose/Route (Viral Particles #/dose):
# An equal volume of 2× DDM and 2× Ad.CMV.LacZ was mixed together immediately before instillation into the bladder. […] But with 45 min. instillation, all animals with 0.05%-0.2% DDM with Ad-βgal virus had 100% gene expression in mice bladder.
structure (smiles),measurement,setting,value
"CCCCCCCCCCCCO[C@@H]1O[C@H](CO)[C@@H](O[C@H]2O[C@H](CO)[C@@H](O)[C@H](O)[C@H]2O)[C@H](O)[C@H]1O [n-dodecyl β-D-maltoside, n-dodecyl-β-D-maltoside]",epithelium cells transduced with Ad-βgal gene in bladder tumors,[1],~100%
same,effect on adenovirus (in words),adenovirus (Ad-LacZ),no adverse effects on adenovirus
same,removal of GAG layer of bladder epithelium,[2],effective to remove GAG layer of bladder epithelium
same,Transduction Efficacy,bladder epithelium,++++ (“++++” means >75% transduction efficacy)
same,pathologists report,bladder; 0.02% pre-treatment for 5 minutes,no significant lesions
same,pathologists report,bladder; 0.05% pre-treatment for 5 minutes,no significant lesions
same,pathologists report,bladder; 0.2% pre-treatment for 5 minutes,"erosions, focal ulcer, moderate submucosal edema with mucosal compromise"
same,gene expression in bladder,mice bladder urothelium; 0.05% DDM formulated with Ad-βgal virus,about 40%
same,gene expression in mice bladder,"mice bladder urothelium; 0.05%-0.2% DDM with Ad-βgal virus, 45 min. instillation",100%
same,gene expression in bladder,mice bladder urothelium; 0.1% DDM formulated with Ad-βgal virus,about 80%
same,gene transduction (in words),mice bladder urothelium; 10 min. virus instillation after DDM pretreatment,gene transduction could be achieved
same,transduction rate (in words),"mice bladder urothelium; DDM formulated with virus, 10 min. instillation",did not achieve an acceptable transduction rate
